Earlier results on one compound are cited in US20140011742A1, “Bioactive Peptides and Proteins Containing Bioactive Peptides, their Uses and Processes for Making the Same” (MCGILL UNIVERSITY, priority 2010, published 2014).

For this data set the following is noted: compared with β-Lg hydrolysates; as previously reported.

Turning to `O=C1O[C@H]([C@@H](O)CO)C(O)=C1O` [Vitamin C], the radical scavenging activity entry was “comparable radical scavenging activity”.
